Source: patent US20260345619A1 (Principia Biopharma Inc., priority 2023, published 2026)

Test: Asthma Quality of Life Questionnaire with Standardized Activities (AQLQ(S))
Format: in vivo, human
Source text: The AQLQ(S) is a self-administered patient reported outcome to measure the functional impairments that are most troublesome to adolescents and adults ≥12 years of age as a result of their asthma.
Asthma Quality of Life Questionnaire with Standardized Activities (AQLQ(S)) self-administered (≥12 years)
The AQLQ(S) was designed as a self-administered patient reported outcome to measure the functional impairments that are most troublesome to adolescents and adults ≥12 years of age as a result of their asthma. The instrument is comprised of 32 items, each rated on a 7-point Likert scales from 1 to 7. The AQLQ(S) has 4 domains. The domains and the number of items in each domain are as follows: • Symptoms (12 items) • Activity limitation (11 items) • Emotional function (5 items) • Environmental stimuli (4 items)
A global score is calculated ranging from 1 to 7 and a score by domain. Higher scores indicate better quality of life. […] Patients were to complete the questionnaire in an electronic diary during on-site visits.
Secondary endpoints included pre-bronchodilator FEV1 change from baseline at EOT, ACQ-5 score change from baseline, and AQLQ score change from baseline. Other secondary and exploratory endpoints are described in Table 2.

[1] = 400 mg TID, observed/LOCF imputed, n=53, mITT

## CC(C)(C=C(C#N)C(=O)N1CCC[C@@H](n2nc(-c3ccc(Oc4ccccc4)cc3F)c3c(N)ncnc32)C1)N1CCN(C2COC2)CC1 (mixture of isomers) [rilzabrutinib, (R)-2-[3-[4-amino-3-(2-fluoro-4-phenoxy-phenyl)pyrazolo[3,4-d]pyrimidin-1-yl]piperidine-1-carbonyl]-4-methyl-4-[4-(oxetan-3-yl)piperazin-1-yl]pent-2-enenitrile]
400 mg TID, mITT, all others than low EOS and low FeNO
  AQLQ global score change from baseline at Week 12, LS Mean Diff vs. placebo: 0.35
400 mg TID, mITT, atopic medical conditions: no
  AQLQ global score change from baseline at Week 12, LS Mean Diff vs. placebo: 0.37
400 mg TID, mITT, atopic medical conditions: yes
  AQLQ global score change from baseline at Week 12, LS Mean Diff vs. placebo: 0.13
400 mg TID, mITT, background ICS dose high
  AQLQ global score change from baseline at Week 12, LS Mean Diff vs. placebo: 0.26
400 mg TID, mITT, background ICS dose medium
  AQLQ global score change from baseline at Week 12, LS Mean Diff vs. placebo: 0.31
400 mg TID, mITT, baseline ACQ-5 score >2
  AQLQ global score change from baseline at Week 12, LS Mean Diff vs. placebo: 0.38
400 mg TID, mITT, baseline ACQ-5 score ≤2
  AQLQ global score change from baseline at Week 12, LS Mean Diff vs. placebo: 0.29
400 mg TID, mITT, baseline BMI <25 kg/m^2
  AQLQ global score change from baseline at Week 12, LS Mean Diff vs. placebo: 0.56
400 mg TID, mITT, baseline BMI ≥25-<30 kg/m^2
  AQLQ global score change from baseline at Week 12, LS Mean Diff vs. placebo: 0.47
400 mg TID, mITT, baseline BMI ≥30 kg/m^2
  AQLQ global score change from baseline at Week 12, LS Mean Diff vs. placebo: −0.01
400 mg TID, mITT, baseline FEV1 reversibility <12%
  AQLQ global score change from baseline at Week 12, LS Mean Diff vs. placebo: 0.12
400 mg TID, mITT, baseline FEV1 reversibility ≥12%
  AQLQ global score change from baseline at Week 12, LS Mean Diff vs. placebo: 0.32
400 mg TID, mITT, baseline FeNO <25 ppb
  AQLQ global score change from baseline at Week 12, LS Mean Diff vs. placebo: 0.15
400 mg TID, mITT, baseline FeNO <35 ppb
  AQLQ global score change from baseline at Week 12, LS Mean Diff vs. placebo: 0.18
400 mg TID, mITT, baseline FeNO ≥25 ppb
  AQLQ global score change from baseline at Week 12, LS Mean Diff vs. placebo: 0.44
400 mg TID, mITT, baseline FeNO ≥35 ppb
  AQLQ global score change from baseline at Week 12, LS Mean Diff vs. placebo: 0.45
400 mg TID, mITT, baseline IgA <median 2190 mg/L
  AQLQ global score change from baseline at Week 12, LS Mean Diff vs. placebo: 0.50
400 mg TID, mITT, baseline IgA ≥median 2190 mg/L
  AQLQ global score change from baseline at Week 12, LS Mean Diff vs. placebo: 0.08
400 mg TID, mITT, baseline IgE <100 IU/mL
  AQLQ global score change from baseline at Week 12, LS Mean Diff vs. placebo: 0.46
400 mg TID, mITT, baseline IgE <median 121.85 IU/mL
  AQLQ global score change from baseline at Week 12, LS Mean Diff vs. placebo: 0.60
400 mg TID, mITT, baseline IgE ≥100 IU/mL
  AQLQ global score change from baseline at Week 12, LS Mean Diff vs. placebo: 0.16
400 mg TID, mITT, baseline IgE ≥median 121.85 IU/mL
  AQLQ global score change from baseline at Week 12, LS Mean Diff vs. placebo: −0.02
400 mg TID, mITT, baseline blood eosinophil level 1 <0.15 10^9/L
  AQLQ global score change from baseline at Week 12, LS Mean Diff vs. placebo: 0.07
400 mg TID, mITT, baseline blood eosinophil level 1 ≥0.15-<0.3 10^9/L
  AQLQ global score change from baseline at Week 12, LS Mean Diff vs. placebo: 0.32
400 mg TID, mITT, baseline blood eosinophil level 1 ≥0.3 10^9/L
  AQLQ global score change from baseline at Week 12, LS Mean Diff vs. placebo: 0.70
400 mg TID, mITT, baseline blood eosinophil level 2 <0.3 10^9/L
  AQLQ global score change from baseline at Week 12, LS Mean Diff vs. placebo: 0.17
400 mg TID, mITT, baseline blood eosinophil level 2 ≥0.3 10^9/L
  AQLQ global score change from baseline at Week 12, LS Mean Diff vs. placebo: 0.70
400 mg TID, mITT, baseline percent predicted FEV1 <77%
  AQLQ global score change from baseline at Week 12, LS Mean Diff vs. placebo: 0.42
400 mg TID, mITT, baseline percent predicted FEV1 <80%
  AQLQ global score change from baseline at Week 12, LS Mean Diff vs. placebo: 0.35
400 mg TID, mITT, baseline percent predicted FEV1 ≥77%
  AQLQ global score change from baseline at Week 12, LS Mean Diff vs. placebo: 0.16
400 mg TID, mITT, baseline percent predicted FEV1 ≥80%
  AQLQ global score change from baseline at Week 12, LS Mean Diff vs. placebo: 0.27
400 mg TID, mITT, baseline pre-bronchodilator FEV1 <2.1955 L
  AQLQ global score change from baseline at Week 12, LS Mean Diff vs. placebo: 0.28
400 mg TID, mITT, baseline pre-bronchodilator FEV1 ≥2.1955 L
  AQLQ global score change from baseline at Week 12, LS Mean Diff vs. placebo: 0.27
400 mg TID, mITT, baseline weight <60 kg
  AQLQ global score change from baseline at Week 12, LS Mean Diff vs. placebo: −0.08
400 mg TID, mITT, baseline weight ≥60-<90 kg
  AQLQ global score change from baseline at Week 12, LS Mean Diff vs. placebo: 0.41
400 mg TID, mITT, baseline weight ≥90 kg
  AQLQ global score change from baseline at Week 12, LS Mean Diff vs. placebo: 0.17
400 mg TID, mITT, female
  AQLQ global score change from baseline at Week 12, LS Mean Diff vs. placebo: 0.32
400 mg TID, mITT, former smokers
  AQLQ global score change from baseline at Week 12, LS Mean Diff vs. placebo: −0.02
400 mg TID, mITT, low EOS (<0.15) and low FeNO (<25)
  AQLQ global score change from baseline at Week 12, LS Mean Diff vs. placebo: 0.10
400 mg TID, mITT, male
  AQLQ global score change from baseline at Week 12, LS Mean Diff vs. placebo: 0.15
400 mg TID, mITT, never smokers
  AQLQ global score change from baseline at Week 12, LS Mean Diff vs. placebo: 0.34
[1]
  AQLQ global score non-responders at Week 12, number: 24
  AQLQ global score non-responders at Week 12, percentage: (45.3) (22/2)
400 mg TID, placebo 40.3%, p=0.0456
  participants with AQLQ improvement of at least 0.5 from baseline at Week 12: 54.7%
Week 4, 400 mg BID, mITT
  AQLQ(S) Activity limitation score, Mean: 5.48
  AQLQ(S) Activity limitation score, Median: 5.55
  AQLQ(S) Activity limitation score, change from baseline, LS Mean: 0.72
  AQLQ(S) Activity limitation score, change from baseline, Mean: 0.73
  AQLQ(S) Activity limitation score, change from baseline, Median: 0.55
  AQLQ(S) Emotional function score, Mean: 5.85
  AQLQ(S) Emotional function score, Median: 6.40
  AQLQ(S) Emotional function score, change from baseline, LS Mean: 0.77
  AQLQ(S) Emotional function score, change from baseline, Mean: 0.61
  AQLQ(S) Emotional function score, change from baseline, Median: 0.40
  AQLQ(S) Environmental stimuli score, Mean: 5.13
  AQLQ(S) Environmental stimuli score, change from baseline, LS Mean: 0.60
  AQLQ(S) Environmental stimuli score, change from baseline, Mean: 0.67
  AQLQ(S) Environmental stimuli score, change from baseline, Median: 0.50
  AQLQ(S) Global score, Mean: 5.63
  AQLQ(S) Global score, Median: 5.69
  AQLQ(S) Global score, change from baseline, LS Mean: 0.80
  AQLQ(S) Global score, change from baseline, Mean: 0.73
  AQLQ(S) Global score, change from baseline, Median: 0.69
  AQLQ(S) Symptoms score, Mean: 5.83
  AQLQ(S) Symptoms score, Median: 6.00
  AQLQ(S) Symptoms score, change from baseline, LS Mean: 0.92
  AQLQ(S) Symptoms score, change from baseline, Mean: 0.80
  AQLQ(S) Symptoms score, change from baseline, Median: 0.75
Week 4, 400 mg BID, mITT, 95% CI 0.02, 1.49
  AQLQ(S) Environmental stimuli score, change from baseline, LS Mean Diff vs. placebo: 0.76
Week 4, 400 mg BID, mITT, 95% CI 0.26, 1.24
  AQLQ(S) Activity limitation score, change from baseline, LS Mean Diff vs. placebo: 0.75
Week 4, 400 mg BID, mITT, 95% CI 0.30, 1.74
  AQLQ(S) Emotional function score, change from baseline, LS Mean Diff vs. placebo: 1.02
Week 4, 400 mg BID, mITT, 95% CI 0.34, 1.34
  AQLQ(S) Global score, change from baseline, LS Mean Diff vs. placebo: 0.84
Week 4, 400 mg BID, mITT, 95% CI 0.41, 1.32
  AQLQ(S) Symptoms score, change from baseline, LS Mean Diff vs. placebo: 0.86
